Results published in publication PMC12040169 (PLOS Biology, 2025).

test: in vitro; conditions: human, hela cells, % viability

Structure (SMILES) | viability at 28.5 h, 10 µM [%]
CC(=O)COc1cc(OCC(C)=O)c2c3c(c(=O)oc2c1)CCC3 [CBK307219] | 85.1
COc1ccc(CN2CCOCC2CC(=O)O)cc1Cn1cncn1 (stereo not shown) [CBK307220] | 92.7
CCc1noc(C)c1C(=O)N1CC[C@@H](CNC(=O)N2CCCC2)[C@H](O)C1 [CBK307222] | 88.3
CCN1CC2(CCCN(Cc3cncn3C3CCCCC3)C2)CCC1=O (stereo not shown) [CBK307223] | 98.1
CCn1cc(CN(Cc2cccnc2)Cc2ccccc2OC)cn1 [CBK307224] | 84.2
O=C(N[C@@H]1COCC[C@@H]1OCC1CC1)c1cccc2c1NCCC2 [CBK307227] | 102
Cc1ccc2nc(CNC(=O)CN(C)C3CCNCC3)cn2c1 [CBK307228] | 96.6
CCCNC(=O)NC1CC(C)(C)Cc2nc(N3CCOCC3)ncc21 (stereo not shown) [CBK307232] | 85.7
COc1ccccc1C(=O)Nc1sc2c(c1C#N)CC(C)(C)NC2(C)C [CBK307233] | 99.9
Cc1ccc(F)cc1C(=O)NCC1CCN(c2cnn(C)c(=O)c2)C1 (stereo not shown) [CBK307235] | 92.2
COc1ccc(Cl)cc1CN(C)C(=O)c1cnn2cc(CCO)cnc12 [CBK307236] | 97.7
O=C(c1nc2ccccn2c1CN1CCCC(O)C1)N1CCOCC1 (stereo not shown) [CBK307237] | 88.4
Cc1cc(=O)cc(C(=O)NC2CCN(c3ncccc3C#N)CC2)o1 [CBK307240] | 86.2
CCOc1ccc(-c2ccnc(N3CCC(N(C)C)C3)n2)cc1C(=O)O (stereo not shown) [CBK307241] | 95
Cc1nc(N2CCCCC2)ncc1C(=O)NCc1nonc1C [CBK307243] | 87.7
CCOC(=O)c1cn(CCSCC)cc(Oc2ccccc2)c1=O [CBK307244] | 115
CCCc1nc(C(=O)N2Cc3cnn(Cc4ccc(F)cc4)c3C2)cs1 [CBK307249] | 86
CCN1CC2(CCC1=O)CCN(Cc1cccc(C(C)N(C)C)c1)CC2 (stereo not shown) [CBK307250] | 116
COc1nc2ccn(CC(O)CO)c(=O)c2cc1C#N (stereo not shown) [CBK307251] | 97.1
CCCn1nccc1S(=O)(=O)NCCN1CCCCC1CO (stereo not shown) [CBK307259] | 82
Cc1cc(C(F)(F)F)nn1CCNC(=O)c1cn2ccsc2n1 [CBK307260] | 112
CCOc1ccc(NC(=O)NC(CC)c2cnn(C)c2)cc1Cl (stereo not shown) [CBK307262] | 107
CCCS(=O)(=O)NC1CC(C)(C)Cc2c1cnn2-c1ccccc1 (stereo not shown) [CBK307265] | 98.1

Structure (SMILES) | viability at 28.5 h, 10 µM [%]
CN(c1ncccc1CNC(=O)c1c[nH]c(=O)c(Cl)c1)C1CCCCC1 [CBK307267] | 92.6
Cc1cc(CC(=O)NCCCn2ccnc2C(C)C)on1 [CBK307270] | 99.7
CN(C)CCn1ccnc1C1CCCN(C(=O)Cc2cccc(Cl)c2)C1 (stereo not shown) [CBK307272] | 92.3
N#Cc1cccnc1N1CCC(NC(=O)Cn2cccnc2=O)CC1 [CBK307275] | 95.7
Cc1cc(C)n2nc(CC(=O)NCCCn3cc(Cl)cn3)nc2n1 [CBK307276] | 84.3
COc1cc2c(cc1CN1CCOCC1CC(=O)O)CCC2 (stereo not shown) [CBK307277] | 102
O=C(NCCCn1cc(Cl)cn1)N1CCCN(Cc2cccs2)CC1 [CBK307279] | 105
CCn1c(C2CCN(C(=O)c3ccc(C)c(Cl)c3)CC2)nn(C)c1=O [CBK307280] | 95.9
COc1ccc(Cc2nc(CCNC(C)=O)n(CC(F)(F)F)n2)cc1 [CBK307287] | 77.8
Cc1cc(-c2cn3cc(C(=O)NCCO)nc3c(=O)n2C)c(C)o1 [CBK307288] | 89.4
COCCn1c(CN2Cc3ccc(Cl)cc3C2=O)nnc1[C@H]1C[C@@H](N)C1 [CBK307289] | 102
OC(c1cccs1)C1CCN(Cc2cnn(-c3ccccc3)c2)CC1 (stereo not shown) [CBK307290] | 105
Cc1csc2c(N3CCC(NCCCc4cnn(C)c4)CC3)ncnc12 [CBK307291] | 98.2
Cn1cc(CCC(=O)NC(Cc2ccncc2)[C@H]2C[C@H](O)C2)cn1 (stereo partly shown) [CBK307292] | 82.4
Cc1nc2c(c(N(C)C)n1)CCN(C(=O)C(C)n1cc(Cl)cn1)C2 (stereo not shown) [CBK307293] | 110
Cc1nc2cc(OCc3nc(C(=O)NC4CCNC4=O)co3)ccc2s1 (stereo not shown) [CBK307298] | 91.8
COc1cccc2ncn(CCc3n[nH]c(N)n3)c(=O)c12 [CBK307301] | 90.8
COc1ccc2[nH]c(C(=O)N3CCn4nc(CO)cc4C3)c(C)c2c1 [CBK307302] | 106
COc1ccnc(C(=O)N(Cc2ccccn2)CC2CCCO2)c1 (stereo not shown) [CBK307303] | 94.1
CCOc1ccccc1CN(C)c1cc(C2CC(N)C2)nc(N)n1 (stereo not shown) [CBK307308] | 82.4
CCCc1nc(NC(CCO)c2ccc(C)cc2)c2cnn(C)c2n1 (stereo not shown) [CBK307309] | 85.3
COCC(=O)NCC1Cc2cc(F)cc(-c3ccc(C(C)=O)s3)c2O1 (stereo not shown) [CBK307310] | 98.4
CCCS(=O)(=O)NC(C)c1cnn(-c2ccc(OC)cc2)c1C (stereo not shown) [CBK307319] | 115

Structure (SMILES) | viability at 28.5 h, 10 µM [%]
Cc1c(-c2ccc(N(C)C)nc2)c(C(F)(F)F)nn1C [CBK307320] | 83.5
O=C(NCCc1c[nH]cn1)N1CCCN(Cc2ccc(F)cc2)CC1 [CBK307323] | 111
Cc1ccc(C(=O)N(C)Cc2cc(-c3ccncc3)no2)c(=O)n1C [CBK307324] | 83.7
Cc1cc(-c2cn3cc(C(=O)N4CCNCC4)nc3c(=O)n2C)c(C)o1 [CBK307325] | 108
CCn1c(C2CCN(C(=O)CCCn3cncn3)CC2)nn(C)c1=O [CBK307326] | 92.4
Cn1c(N2CC[C@H](O)C2)nc2cc(C(=O)NCCn3cccn3)ccc21 [CBK307328] | 111
CCn1ncc(CN(C)C(=O)CCC2CCCCN2C)c1C (stereo not shown) [CBK307329] | 116
CCN(C(=O)c1cn2c3c(cccc3c1=O)CC2)C1CCOC(C)(C)C1 (stereo not shown) [CBK307332] | 90.1
Cc1cc(C)c(C)c(S(=O)(=O)NCCN2CCCCC2CO)c1C (stereo not shown) [CBK307333] | 90.4
Cc1nnnn1CC(=O)Nc1nn(C)c2cccc(N3CCOCC3)c12 [CBK307335] | 97
COCc1nc(NCCCn2c(C)cccc2=O)cc([C@H]2C[C@H](N)C2)n1 [CBK307337] | 103
CSc1ncc(C(=O)N2CCC(N3CCCC(CO)C3)CC2)c(=O)[nH]1 (stereo not shown) [CBK307338] | 90.3
Cc1cccn2c(CN3CCCC(O)C3)c(C(=O)N3CCCCC3)nc12 (stereo not shown) [CBK307342] | 94
COc1nc2ccn(CCC3CCOC3)c(=O)c2cc1C#N (stereo not shown) [CBK307343] | 101
Cn1cc(CN(C(=O)c2nc(N)nc3c2CCCC3)C2CC2)cn1 [CBK307352] | 90.1
Cc1nc(N)nc(NCCC2CCCOC2)c1Cl (stereo not shown) [CBK307353] | 97.1
CCCSCC(=O)Nc1nn(C)c2cccc(N3CCOCC3)c12 [CBK307354] | 105
CCOC(=O)N1CCN(Cc2ccc(OCC3CCCNC3)cc2)CC1 (stereo not shown) [CBK307355] | 73.8
COc1cccc(CN2CCCC(NC(=O)NCc3cccs3)C2)c1 (stereo not shown) [CBK307357] | 73.3
Cc1cccc(OCC2CCCN(C(=O)NCCc3cnn(C)c3)C2)c1 (stereo not shown) [CBK307358] | 96.9
COCCN(Cc1cnn(C)c1)Cc1cc(O)c2cc(F)ccc2n1 [CBK307359] | 103
CCCCN(Cc1ccc(C)s1)C(=O)C1CCc2nn(C)c(=O)n2C1 (stereo not shown) [CBK307360] | 94.6
COc1ccc(OCCCN)c(C(=O)N2CCc3nc[nH]c(=O)c3C2)c1 [CBK307361] | 97.2

Structure (SMILES) | viability at 28.5 h, 10 µM [%]
Cn1ncc2c(NCCCC3CCOC3)nc(C(C)(C)C)nc21 (stereo not shown) [CBK307363] | 113
Cc1cccc(=O)n1CCCn1cc(C2CCOC2)nn1 (stereo not shown) [CBK307368] | 100
CC1(C)Cc2nc(N3CCOCC3)ncc2C(NC(=O)c2cccs2)C1 (stereo not shown) [CBK307369] | 92.7
O=C(CSc1nc(-c2cccs2)cc(C(F)(F)F)n1)N1CCSCC1 [CBK307371] | 107
CN1CCN(C(=O)CSc2nc(-c3cccs3)cc(C(F)(F)F)n2)CC1 [CBK307372] | 92.3
N#CCCCN1C(=O)C(O)(CC(=O)c2ccccn2)c2ccccc21 (stereo not shown) [CBK307373] | 121
CSC(C)CCN1CCn2nc(CNc3cnccn3)cc2C1 (stereo not shown) [CBK307376] | 95.5
CCOCCn1nc(C)cc1C(=O)NC(CC)c1cn2cccnc2n1 (stereo not shown) [CBK307377] | 79
COc1ccc(Cc2nc(C3CCC3)n(CC3COCCO3)n2)cc1 (stereo not shown) [CBK307378] | 87.8
Cc1coc(C)c1C(=O)CC1(O)C(=O)N(CCCC#N)c2ccccc21 (stereo not shown) [CBK307383] | 86
CC(=O)Nc1nnc(SCC(=O)N2CCN(c3ccc(Cl)cc3)CC2)s1 [CBK307384] | 86.6
Cn1cnnc1SCCNC(=O)N1CCc2sccc2C1 [CBK307385] | 97.3
COCCN(C(=O)c1[nH]c2c(F)cccc2c1C)C1CCN(C)CC1 [CBK307386] | 95
COCc1cn(C2CCN(c3cc(-n4cc(C)cn4)ncn3)CC2)nn1 [CBK307388] | 92.9
Cc1cnc2c(Cl)c(C(=O)NCC(F)(F)F)nn2c1 [CBK307391] | 93.1
Nc1nc(C2CC(O)C2)cc(N2CCC(Oc3ccccc3Cl)CC2)n1 (stereo not shown) [CBK307392] | 93.2
CN(Cc1nccn1C)c1nccc(N2CCN[C@H]3CS(=O)(=O)C[C@H]32)n1 [CBK307394] | 84.8
CCCCn1nc(Cn2cncn2)nc1CC1NC(=O)c2ccccc21 (stereo not shown) [CBK307395] | 108
OCC1(CNc2ncc(F)c(N3CCCC3)n2)CCCC1 [CBK307397] | 103
CCC(=O)N1CCCCC(NS(=O)(=O)c2ccc(-n3cccn3)cc2)C1 (stereo not shown) [CBK307398] | 82.5
Cc1cccc(=O)n1CCCn1cc(-c2ncc[nH]2)nn1 [CBK307401] | 90.7
CC(=O)NCC1CCC2(CCN(c3nc(C)nc(C)c3C)CC2)O1 (stereo not shown) [CBK307404] | 94.1
